Data set [1] concerns A-549 cell line. The data set is described as follows: MTT cytotoxicity assay, A-549 lung cancer cell line. It is filed as cell-based, human. As to conditions: lung cancer cells. As for the experimental part:
(§1) The lung cancer A-549 and the breast cancer MDA-MB-231 cell lines were obtained from the viscera Tissue Culture Unit. The cells were spread in Dulbecco’s modified Eagle’s medium (DMEM) supplemented with 10% heat-inactivated fetal bovine serum, 1% L-glutamine, HEPES buffer, and 50 µg/mL gentamycin. All cells were maintained at 37 °C in a humidified atmosphere with 5% CO2 and were sub-cultured two times a week.
(§2) The MTT assay was applied to determine the cytotoxicity of pyridine and thiazole derivatives. MTT or 3-(4,5-dimethylthiazol-2-yl)-2,5-diphenyltetrazolium bromide was purchased from Serva, Germany. The cell lines were introduced into 96-well plates at a cell concentration of 1 × 10^4 cells per well in 100 μL of complete medium (tests were done in duplicates). These plates were incubated for 24 h, 5% CO2, at 37 °C for settle down and adhesion. Control cells were incubated without the test sample and with or without DMSO. After incubation, different concentrations of samples were added after the period of incubation (48 h), media were inhaled, and the MTT solution was added to all wells for full 30 min. Briefly, the media was extracted from the 96 well plates and exchanged with 100 µl of fresh culture RPMI 1640 medium without phenol red then 10 µl of the 12 mM MTT stock solution (5 mg of MTT in 1 mL of PBS) to all wells inclusive the untreated controls. The 96 well plates were incubated at 37 °C and 5% CO2 for 4 h. An 85 µl aliquot of the media was taken away from the wells, added 50 µl of DMSO to all wells and mixed thoroughly, and incubated at 37 °C for 10 min. The absorbance of plates was measured after shaking on a microplate reader (TECAN, Inc.), using a test wavelength of 590 nm. Measure the optical density by the microplate reader to calculate the number of viable cells and the percentage of viability according to [(ODt/ODc)] × 100% where ODt (optical density of cells treated) with the tested sample and ODc (optical density of control cells).
(§3) In the vitro cytotoxic activity of triphenylamine-based pyridine, thiazole, pyrazole and/or isoxazole derivatives was estimated against two cell lines as lung cancer (A-549) and mammary gland breast cancer cell line (MDA-MB-231) by using MTT assay according to reported method. Cisplatin is one of the common alkylation agents was selected to be the reference drug. From graphic plots of the dose response curve determine the 50% inhibitory concentration (IC50) (Fig. 2).

In data set [2] the test system is MDA-MB-231 cell line. The data set is described as follows: MTT cytotoxicity assay, MDA-MB-231 breast cancer cell line. It is filed as cell-based, human. As to conditions: breast cancer cells. As for the experimental part:
as §1, §2, §3
(In general: Tetrazolium dyes change colour on reduction, which living cells bring about.)

In data set [3] the test system is human lung fibroblast noncancerous cell line (MRC-5). The data set is described as follows: MTT cytotoxicity assay against normal cells (MRC-5). It is filed as cell-based. As to conditions: normal human lung fibroblasts. As for the experimental part:
as §2
(§4) The MTT assay was applied to determine the cytotoxicity of pyridine and thiazole derivatives against normal cell line to explore the selectivity of the tested compounds against tumor cells. The cytotoxicity was tested against human lung fibroblast noncancerous cell line (MRC-5).

Experiment in data set [4]: as above
It is filed as cell-based. As to conditions: MRC-5 cells (normal lung fibroblasts), normal human lung fibroblasts, read-out: CC50 MRC-5 cell line. Here is the method: as §2, §4

Broadly, the IC50 is the concentration needed to halve the response being measured. A high value points to weaker potency in that assay. One may read the CC50 as the concentration giving 50% cytotoxicity. Broadly, the melting point is the temperature, or range, at which the solid turns liquid.

“6-Amino-1-(p-anisyl)-4-(4-(diphenylamino)phenyl)-2-oxo-1,2-dihydropyridine-3,5-dicarbonitrile [4c]”: the results for the concentration for half-maximal inhibition (IC50) in data set [1] (48 h) and in data set [2] (48 h) were 0.154 µM and 0.193 µM, respectively. Further, in data set [3], the half-maximal cytotoxic concentration (CC50) is 0.864 µM.
`N#Cc1c(-c2ccc(N(c3ccccc3)c3ccccc3)cc2)c(C#N)c(=O)n(-c2ccccc2)c1N` [4a, 6-Amino-4-(4-(diphenylamino)phenyl)-2-oxo-1-phenyl-1,2-dihydropyridine-3,5-dicarbonitrile]: the IC50 in data set [1] (Homo sapiens, A549, 48 h) came out at 0.0469 µM; in data set [2] (Homo sapiens, MDA-MB-231, 48 h), 0.055 µM. Besides, the CC50 at 48 h in data set [4] was 0.137 µM.
For the compound `Cc1ccc(-n2c(N)c(C#N)c(-c3ccc(N(c4ccccc4)c4ccccc4)cc3)c(C#N)c2=O)cc1` [4b, 6-Amino-4-(4-(diphenylamino)phenyl)-2-oxo-1-(p-tolyl)-1,2-dihydropyridine-3,5-dicarbonitrile], the IC50 in data set [1] (Homo sapiens, A549, 48 h) worked out at 0.00803 µM; in data set [2] (Homo sapiens, MDA-MB-231, 48 h), 0.0103 µM. Further, the CC50 at 48 h in data set [4] stood at 0.0971 µM.
`CN(C)c1ccc(-n2c(N)c(C#N)c(-c3ccc(N(c4ccccc4)c4ccccc4)cc3)c(C#N)c2=O)cc1` [4d, 6-Amino-1-(4-(dimethylamino)phenyl)-4-(4-(diphenylamino)phenyl)-2-oxo-1,2-dihydropyridine-3,5-dicarbonitrile] showed an IC50 in data set [1] (Homo sapiens, A549, 48 h) of 0.233 µM. The CC50 at 48 h in data set [4] is 1.1 µM.
For the compound `N#Cc1c(-c2ccc(N(c3ccccc3)c3ccccc3)cc2)c(C#N)c(=O)n(-c2ccc([N+](=O)[O-])cc2)c1N` [4e, 6-Amino-4-(4-(diphenylamino)phenyl)-1-(4-nitrophenyl)-2-oxo-1,2-dihydropyridine-3,5-dicarbonitrile], the IC50 in data set [1] (Homo sapiens, A549, 48 h) came to 0.0095 µM; in data set [2] (Homo sapiens, MDA-MB-231, 48 h), 0.0147 µM. Moreover, the CC50 at 48 h in data set [4] was found to be 0.0823 µM.
In the case of `CCN(CC)c1ccc(NC(=O)C(C#N)=c2sc(=O)c(=Cc3ccc(N(c4ccccc4)c4ccccc4)cc3)n2-c2ccccc2)cc1` [6a, 2-Cyano-N-(4-(diethylamino)phenyl)-2-(4-(4-(diphenylamino)benzylidene)-5-oxo-3-phenylthiazolidin-2-ylidene)acetamide], the IC50 in data set [1] (Homo sapiens, A549, 48 h) amounted to 0.141 µM; in data set [2] (Homo sapiens, MDA-MB-231, 48 h), 0.172 µM. Also, in data set [4], the CC50 at 48 h is 0.985 µM.
Consider `CN(C)c1ccc(NC(=O)C(C#N)=c2sc(=O)c(=Cc3ccc(N(c4ccccc4)c4ccccc4)cc3)n2-c2ccccc2)cc1` [6b, 2-Cyano-N-(4-(dimethylamino)phenyl)-2-(4-(4-(diphenylamino)benzylidene)-5-oxo-3-phenylthiazolidin-2-ylidene)acetamide], for which the IC50 in data set [1] (Homo sapiens, A549, 48 h) is 0.0792 µM; in data set [2] (Homo sapiens, MDA-MB-231, 48 h), 0.123 µM. For the same compound, the CC50 at 48 h in data set [4] was 0.768 µM.
In the case of `Cc1ccc(NC(=O)C(C#N)=c2sc(=O)c(=Cc3ccc(N(c4ccccc4)c4ccccc4)cc3)n2-c2ccccc2)cc1` [6c, 2-Cyano-2-(4-(4-(diphenylamino)benzylidene)-5-oxo-3-phenylthiazolidin-2-ylidene)-N-(p-tolyl)acetamide], the IC50 came out at 0.0485 µM in data set [1] (Homo sapiens, A549, 48 h) and 0.051 µM in data set [2] (Homo sapiens, MDA-MB-231, 48 h). For the same compound, the CC50 at 48 h in data set [4] is 0.143 µM.
In the case of `COc1ccc(NC(=O)C(C#N)=c2sc(=O)c(=Cc3ccc(N(c4ccccc4)c4ccccc4)cc3)n2-c2ccccc2)cc1` [6d, 2-Cyano-2-(4-(4-(diphenylamino)benzylidene)-5-oxo-3-phenylthiazolidin-2-ylidene)-N-(4-methoxyphenyl)acetamide], the IC50 came to 0.0954 µM in data set [1] (Homo sapiens, A549, 48 h) and 0.139 µM in data set [2] (Homo sapiens, MDA-MB-231, 48 h). In addition, the CC50 at 48 h in data set [4] stood at 0.683 µM.
With `N.N.[Cl][Pt][Cl]` [Cisplatin, reference compound], the IC50 in data set [1] (48 h) stood at 0.0244 µM; in data set [2] (48 h) it was 0.012 µM.
The compound `CCOC(=O)C=c1sc(=Cc2ccc(N(c3ccccc3)c3ccccc3)cc2)c(=O)n1-c1ccccc1` [compound 8, ethyl-2-(5-(4-(diphenylamino)benzylidene)-4-oxo-3-phenylthiazolidin-2-ylidene)acetate] displayed a melting point of 250 to 252 °C. This compound came in with an IC50 in data set [1] (Homo sapiens, A549, 48 h) of 0.219 µM. For the same compound, the IC50 in data set [2] (Homo sapiens, MDA-MB-231, 48 h) was found to be 0.136 µM. For the same compound, the 50% cytotoxic concentration (CC50) at 48 h in data set [4] is 1.1 µM.
Compound `CC1=NN(c2ccccc2)C(=O)C1=Cc1ccc(N(c2ccccc2)c2ccccc2)cc1` [compound 9, 4-(4-(Diphenylamino)benzylidene)-5-methyl-2-phenyl-2,4-dihydro-3H-pyrazol-3-one] registered a melting point of 182 to 184 °C. Besides, the IC50 in data set [1] (Homo sapiens, A549, 48 h) is 0.127 µM. Further, the IC50 in data set [2] (Homo sapiens, MDA-MB-231, 48 h) amounted to 0.268 µM. For the same compound, in data set [4], the CC50 at 48 h stood at 1.29 µM.
For `O=C1ON=C(c2ccccc2)C1=Cc1ccc(N(c2ccccc2)c2ccccc2)cc1` [compound 10, 4-(4-(Diphenylamino)benzylidene)-3-phenylisoxazol-5(4H)-one] the same measures were 218 to 220 °C, 0.128 µM, 0.111 µM and 0.973 µM.

The record behind these values is paper PMC9641905, “Synthesis, biological evaluation and molecular docking of new triphenylamine-linked pyridine, thiazole and pyrazole analogues as anticancer agents” (BMC Chemistry, 2022).
